Earlier results in patent US6476058B2 (Isotechnika, Inc., priority 1998, dated 2002).

Experiments:
human = details: racemic mixture administered to a human
[1] = in vivo
[2] = system: patients with chronic stable angina

metabolites excreted in the urine (in vivo): 60%
parent compound excreted in the urine (in vivo): 10%
bioavailability in the presence of food (oral, food): not altered
influence of renal impairment on pharmacokinetics (renal impairment): not significantly influenced
serum calcium concentration [1]: not affected
SMILES: CCOC(=O)C1=C(COCCN)NC(C)=C(C(=O)OC)C1c1ccccc1Cl (racemic) [amlodipine, (R.S.) 3-ethyl-5-1-methyl-2-(2-aminoethoxymethyl)-4-(2-chlorophenyl)-1,4-dihydro-6-methyl-3,5-pyridinedicarboxylate]
adverse effects (human): headache and edema, dizziness, flushing, palpitation, fatigue, nausea, abdominal pain and somnolence
reduction in blood pressures [2]: 4/1
